In patent publication US8383578B2, “Peptides, derivatives and analogs thereof, and methods of using same” (CureDM Group Holdings, LLC, priority 2005, dated 2013):
Entries after “also recorded” stand apart in the source; their conditions may differ.

Experiments:
[1] = test system: human pancreatic ductal tissue culture; assay: Insulin production in human pancreatic ductal tissue culture, radioimmunoassay; assay type: cell-based; conditions: 3.3 μM (final culture concentration of 165 nM)
Description: (§1) Human pancreatic islet and progenitor fractions were cultured over 10 days, according to standard protocol. Briefly, pancreata from adult human cadaveric organ donors were obtained through the local organ procurement organization. Islets were isolated according to established protocols described by Bonner-Weir and Jamal. (Bonner-Weir et al., Pediatric Diabetes: 2004; 5(Suppl 2):16-22. Jamal et al., Cell Death Differ. 2005 July; 12(7):702-12).
(§2) Following removal of the organ, cold ischemia time was no more than 8 hours prior to islet isolation. The main pancreatic duct was cannulated and perfused with Liberase HI (Roche Diagnostics). The perfused organ was placed in a closed system (Ricordi Apparatus) and heated to 37° C. to activate the enzyme blend. Following the appearance of free islets in samples, the system was cooled and free tissues were collected and washed. Tissues were applied to a continuous density gradient created using Ficoll (Biochrom KG) in a cell processor (COBE). Free islets with diameters ranging from 75 to 400 μm, determined to be greater than 90% pure by staining with dithizone (Sigma) a zinc chelater, were collected and washed. IHC to detect the presence of amylase and cytokeratin was negative, consistent with the absence of progenitor and exocrine tissue. The progenitor fraction from this separation was also collected for culture.
(§3) Isolated islets were embedded in a type 1 collagen matrix at a density of 2000 islet equivalents/25 cm^2 and cultured in DMEM/F12 containing 10% FBS, 1 μM dexamethasone, 10 ng/ml EGF, 24 mU/ml insulin and 100 ng/ml cholera toxin. Medium was changed every other day. On day 10, culture was continued in the above medium, without the cholera toxin, with neogenic agents and inhibitors at the final concentrations listed below. Medium was changed every other day. Collagen-embedded cultures were harvested by incubating with 0.25 g/L collagenase XI (Sigma) for 30 minutes at 37° C. […]
(§4) Insulin levels were detected by Radioimmunoassay (RIA) from cultures treated with saline only, scrambled peptide, SEQ ID NOs: 7, 3 or 2 and hamster INGAP. […]

[2] = test system: human pancreatic islet tissue; assay: Insulin production in human pancreatic islet tissue culture, radioimmunoassay; assay type: cell-based; conditions: 1 mM for a final culture concentration of 500 nM
Description: as §1, §2, §3, §4

[3] = test system: human pancreatic islet tissue cultures; assay: Insulin production in human pancreatic islet tissue cultures, ELISA; assay type: cell-based; conditions: for insulin production vs Peptide 4 (hamster INGAP) and Peptide 5 (scrambled) (FIG. 5): after 10 days, Rosenberg protocol, 0.002 μg of each peptide in duplicate; for insulin production vs hamster INGAP and scrambled control (FIG. 7B): two concentrations of peptide (3 μM and 1 mM)
Description: (§5) Human pancreatic tissue was treated as described in Example 1 and Insulin production was measured by ELISA assay. FIGS. 4 and 5 show the results of this experiment to show a dose response and to again compare the effect of HIP on the two different fractions of tissue as compared to the hamster INGAP sequence and a scrambled negative peptide sequence. […] The results in FIG. 4 involve the use of 5 μg of each peptide, while the results in FIG. 5 were acquired using 0.002 μg of each peptide.

[4] = test system: human pancreatic ductal tissue cultures; assay: Insulin production in human pancreatic ductal tissue cultures, ELISA; assay type: cell-based; conditions: for insulin production vs Peptide 4 (hamster INGAP) and Peptide 5 (scrambled) (FIG. 4): after 10 days, Rosenberg protocol, samples 5 μg total protein in duplicate; for insulin production vs hamster INGAP and scrambled control (FIG. 7A): two concentrations of peptide (3 μM and 1 mM)
Description: as §5

type 1 patients = conditions: cited from earlier work
NOD mice = assay: HIP treatment of non-obese diabetic (NOD) mice; assay type: in vivo, mouse; conditions: HIP 1 μg/kg/day to 100 mg/kg/day, protocol example
Source text: Animal Model. The non-obese diabetic (NOD) mouse strain has long been studied as an excellent model of type 1 diabetes because it spontaneously develops a disease that is very similar to the human condition. Delovitch, T. L., and Singh, B. 1997. Immunity. 7:727-738. Diabetes in NOD mice is mediated by inflammatory autoreactive T cells that recognize pancreatic islet antigens and escape central and peripheral tolerance.
Procedure: In a parental colony of NOD mice, incidence of diabetes in female NOD mice is typically 75-90% by 30 weeks but may exceed 90% in some cohorts. […] Doses of HIP range from 1 μg/kg/day to 100 mg/kg/day.
Treatment. Cohorts are treated in 2 arms with 2-4 dose ranges of HIP and a placebo, at a compensated dose for animal size, metabolism and circulation, or about 1/6 the mg/kg equivalence. Arm 1: saline, Arm 2: HIP.
Study Assessment. Blood glucose levels are measured every week with a One Touch II glucose meter (Lifescan). Mice are considered diabetic after 2 consecutive measurements over 300 mg/dl. For histological analysis, pancreases are snap-frozen. Multiple 5-μm sections are stained with hematoxylin and eosin and scored blindly for severity of insulitis as known in the art.

[5] = test system: human pancreatic progenitor cells; assay: Islet generation in human ductal tissue culture, inverted microscopy; assay type: cell-based; conditions: ductal/progenitor tissue fraction culture treated with HIP; listed as HIP
Description: A human ductal tissue fraction was isolated and cultured as described in Example 1. After 10 days of culture, cells were treated with HIP for four days and observed using inverted microscopy. […] Islets have formed what has previously been described as ductal epithelial cysts and are starting to bud at one end where a progenitor cell resides. […] In this panel the darkening of the budding portion of the ductal epithelial cyst indicates the differentiation of cells consistent with previously shown changes that occur with hamster INGAP treatment in vitro.

diabetic patients = conditions: cited from earlier work
[6] = dosages up to 10,000 IU/day; cited from earlier work

Compound	insulin production vs INGAP peptide and scrambled negative control (FIG. 1) [1]	insulin production vs INGAP peptide and scrambled negative control (FIG. 2) [2]	insulin production vs Peptide 4 (hamster INGAP) and Peptide 5 (scrambled) (FIG. 5) [3]	insulin production vs hamster INGAP and scrambled control (FIG. 7B) [3]	insulin production vs Peptide 4 (hamster INGAP) and Peptide 5 (scrambled) (FIG. 4) [4]	insulin production vs hamster INGAP and scrambled control (FIG. 7A) [4]	also measured
WIGLHDPTQGTEPNG [HIP1]	increased insulin production	increased insulin production	increased insulin production	increased insulin production	increased insulin production	increased insulin production	
IGLHDPTQGTEPNG (listed as Homo sapiens) [HIP2]	increased insulin production	increased insulin production	increased insulin production	increased insulin production	increased insulin production	increased insulin production	
CC[C@H](C)[C@H](NC(=O)[C@@H]1CCCN1C(=O)CNC(=O)[C@H](Cc1ccccc1)NC(=O)[C@H](CC(N)=O)NC(=O)[C@H](CC(N)=O)NC(=O)[C@H](CO)NC(=O)[C@H](CO)NC(=O)[C@H](Cc1c[nH]cn1)NC(=O)[C@@H](NC(=O)[C@H](CC(C)C)NC(=O)[C@H](Cc1ccccc1)NC(=O)[C@H](CC(N)=O)NC(=O)[C@H](C)NC(=O)[C@H](CC(C)C)NC(=O)[C@H](CCCNC(=N)N)NC(=O)[C@H](CCC(N)=O)NC(=O)[C@@H](NC(=O)[C@H](C)NC(=O)[C@@H]1CSSC[C@H](NC(=O)[C@@H](N)CCCCN)C(=O)N[C@@H](CC(N)=O)C(=O)N[C@@H]([C@@H](C)O)C(=O)N[C@@H](C)C(=O)N[C@@H]([C@@H](C)O)C(=O)N1)[C@@H](C)O)C(C)C)C(=O)N[C@@H](CC(C)C)C(=O)N1CCC[C@H]1C(=O)N1CCC[C@H]1C(=O)N[C@H](C(=O)N[C@@H](CC(N)=O)C(=O)N[C@H](C(=O)NCC(=O)N[C@@H](CO)C(=O)N[C@@H](CC(N)=O)C(=O)N[C@H](C(=O)N[C@@H](Cc1ccc(O)cc1)C(N)=O)[C@@H](C)O)C(C)C)[C@@H](C)O [Pramlintide]							glycemic excursions and pre-meal insulin requirements (type 1 patients): reduce glycemic excursions
IGLHDPTQGTEPNGE (listed as Homo sapiens) [HIP3]	increased insulin production	increased insulin production	increased insulin production	increased insulin production	increased insulin production	increased insulin production	blood glucose levels (NOD mice): pronounced reduction; insulitis in pancreases (histology) (NOD mice): decreased showing of insulinitis; new islet structure formation in culture (micrographs) [5]: Morphological changes show islet like structure; also recorded: New islet structure has formed; also recorded: forming a nidus of new insulin producing islets; also recorded: forming insulin producing islet like structure
IGLHDPSHGTLPNGS (listed as Hamster sp.) [hamster INGAP]							patients with a >50% increase in GAD65 antibody titers (diabetic patients; 300 mg/day treatment group, Phase II study): 22%; C-peptide secretion (diabetic patients; 600 mg/day): increase; effectiveness (diabetic patients; Phase II trial): Little effectiveness; patient drop out due to discomfort and bruising at injection site (diabetic patients; human, in vivo): high drop out; tolerability (diabetic patients; human, in vivo): well tolerated; hemoglobin A1C (diabetic patients; type 2 diabetes patients): fell
C=C1CC[C@H](O)C/C1=C/C=C1\CCC[C@]2(C)[C@@H]([C@H](C)CCCC(C)C)CC[C@@H]12 [Vitamin D, cholecalciferol]							adverse effects [6]: No adverse effects
